For 41 molecules, EC50 results are on record in patent US9120770B2, “Substituted pyridine and pyrazine compounds as PDE4 inhibitors” (DART NEUROSCIENCE (CAYMAN) LTD., priority 2013, dated 2015).

Broadly, the EC50 is the concentration needed to bring the measured effect to its halfway point. Lower therefore signals an effect from little substance.

The assay deals with PDE4D3 (Homo sapiens, UniProt Q08499).

Some results are limits rather than exact numbers.

PDE4D3, sequence (Q08499 1-673 isoform Q08499-2): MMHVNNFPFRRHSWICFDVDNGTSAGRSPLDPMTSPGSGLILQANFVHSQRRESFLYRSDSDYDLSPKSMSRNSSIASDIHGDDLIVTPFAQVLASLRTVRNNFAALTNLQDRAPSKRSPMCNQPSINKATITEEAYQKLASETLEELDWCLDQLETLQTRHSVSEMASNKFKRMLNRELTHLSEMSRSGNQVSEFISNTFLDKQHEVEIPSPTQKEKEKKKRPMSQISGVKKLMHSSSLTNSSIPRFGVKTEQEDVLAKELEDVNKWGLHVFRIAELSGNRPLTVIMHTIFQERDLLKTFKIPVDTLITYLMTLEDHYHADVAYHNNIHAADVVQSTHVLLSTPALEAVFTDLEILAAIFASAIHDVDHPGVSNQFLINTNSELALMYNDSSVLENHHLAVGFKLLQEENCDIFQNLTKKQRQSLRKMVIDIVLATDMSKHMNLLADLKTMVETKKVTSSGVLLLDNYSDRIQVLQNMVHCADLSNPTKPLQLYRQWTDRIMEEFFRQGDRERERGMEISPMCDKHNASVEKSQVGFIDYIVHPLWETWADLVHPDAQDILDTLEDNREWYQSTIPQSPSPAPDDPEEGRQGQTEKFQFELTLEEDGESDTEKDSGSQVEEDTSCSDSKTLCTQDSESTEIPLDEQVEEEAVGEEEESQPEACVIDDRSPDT

In the case of `COc1ncc(Cn2cncn2)cc1-c1ccnc(C)c1` [Example 7, 2-Methoxy-3-(2-methylpyridin-4-yl)-5-(1H-1,2,4-triazol-1-ylmethyl)pyridine], the EC50 lay within 100 to 1000 nM. Under `CCOc1ncc(Cn2ncnc2C(F)(F)F)cc1-c1cccc(Cl)c1` [Example 153, 3-(3-Chlorophenyl)-2-ethoxy-5-{[5-(trifluoromethyl)-1H-1,2,4-triazol-1-yl]methyl}pyridine] stands < 100 nM; under `CNc1ncc(Cc2cnc(OC)c(-c3cccc(Cl)c3)n2)cn1` [Example 56, 5-{[6-(3-Chlorophenyl)-5-methoxypyrazin-2-yl]methyl}-N-methylpyrimidin-2-amine], < 100 nM. The value for `FC(F)Oc1ncc(Cn2cnc(C(F)F)n2)cc1-c1cccc(Cl)c1` [Example 259, 3-(3-Chlorophenyl)-2-(difluoromethoxy)-5-{[3-(difluoromethyl)-1H-1,2,4-triazol-1-yl]methyl}pyridine] was 100 to 1000 nM. The value for `COc1ncc(C(c2ccc(F)cc2)N(C)C)cc1-c1cccc(Cl)c1` (centres unmarked) [Example 19, {[5-(3-Chlorophenyl)-6-methoxypyridin-3-yl](4-fluorophenyl)methyl}dimethylamine] was 1000 to 10000 nM; that for `CC(c1cnc(OC(F)F)c(-c2cccc(Cl)c2)c1)n1cncn1` (centres unmarked) [Example 150, 3-(3-Chlorophenyl)-2-(difluoromethoxy)-5-[1-(1H-1,2,4-triazol-1-yl)ethyl]pyridine] was 100 to 1000 nM. Consider `CCOc1ncc(Cn2cnc(COC)n2)nc1-c1cccc(OC(F)F)c1` [Example 189, 3-[3-(Difluoromethoxy)phenyl]-2-ethoxy-5-{[3-(methoxymethyl)-1H-1,2,4-triazol-1-yl]methyl}pyrazine], for which the EC50 is 100 to 1000 nM. Under `COc1ncc(Cc2ccc(NC(=O)NC3COC3)cc2)cc1-c1cccc(Cl)c1` [Example 31, 1-(4-{[5-(3-Chlorophenyl)-6-methoxypyridin-3-yl]methyl}phenyl)-3-(oxetan-3-yl)urea] stands 1000 to 10000 nM. In the case of `COc1ncc(Cn2cncn2)cc1-c1cccc(Cl)c1` [Example 134, 3-(3-Chlorophenyl)-2-methoxy-5-(1H-1,2,4-triazol-1-ylmethyl)pyridine], the EC50 was < 100 nM.

The molecule `CCOc1ncc(Cn2cc(CO)nn2)nc1-c1cccc(Cl)c1` [Example 268, (1-{[6-(3-Chlorophenyl)-5-ethoxypyrazin-2-yl]methyl}-1H-1,2,3-triazol-4-yl)methanol] showed a half-maximal effective concentration (EC50) of 100 to 1000 nM. With `COc1ncc(Cn2cnc(N)n2)cc1-c1cncc(Cl)c1` [Example 228, 1-{[5-(5-Chloropyridin-3-yl)-6-methoxypyridin-3-yl]methyl}-1H-1,2,4-triazol-3-amine], the 50% effective concentration (EC50) lay in the range of 1000 to 10000 nM. The value for `COc1cc(-c2cc(Cc3cnc(N)nc3)cnc2OC(F)F)ccn1` [Example 46, 5-{[6-(Difluoromethoxy)-5-(2-methoxypyridin-4-yl)pyridin-3-yl]methyl}pyrimidin-2-amine] was < 100 nM. Under `CNc1ncn(Cc2cnc(OC(F)F)c(-c3cccc(Cl)c3)c2)n1` [Example 238, 1-{[5-(3-Chlorophenyl)-6-(difluoromethoxy)pyridin-3-yl]methyl}-N-methyl 1H-1,2,4-triazol-3-amine] stands 100 to 1000 nM. The value for `COC(=O)c1ncn(Cc2cnc(OC)c(-c3cccc(Cl)c3)n2)n1` [Example 127, Methyl 1-{[6-(3-chlorophenyl)-5-methoxypyrazin-2-yl]methyl}-1H-1,2,4-triazole-3-carboxylate] was 1000 to 10000 nM; that for `COc1ncc(Cn2cnc(CO)n2)nc1-c1cccc(Cl)c1` [Example 199, (1-{[6-(3-Chlorophenyl)-5-methoxypyrazin-2-yl]methyl}-1H-1,2,4-triazol-3-yl)methanol] was 1000 to 10000 nM.

As for `COc1ncc(Cc2ccnc(C(N)=O)c2)cc1-c1cccc(Cl)c1` [Example 63, 4-{[5-(3-Chlorophenyl)-6-methoxypyridin-3-yl]methyl}pyridine-2-carboxamide], the EC50 lay in the range of 1000 to 10000 nM. On to `CCOc1ncc(Cc2cnc(N)nc2)cc1-c1cccc(Cl)c1` [Example 40, 5-{[5-(3-Chlorophenyl)-6-ethoxypyridin-3-yl]methyl}pyrimidin-2-amine], for which the concentration giving a half-maximal response (EC50) was < 100 nM.

With `FC(F)Oc1ncc(Cc2ccc(OCC3CC3)nc2)cc1-c1cccc(Cl)c1` [Example 102, 3-(3-Chlorophenyl)-5-{[6-(cyclopropylmethoxy)pyridin-3-yl]methyl}-2-(difluoromethoxy)pyridine], the EC50 lay within 100 to 1000 nM. Regarding `Cc1nc(C)c(Cc2cnc(OC(F)F)c(-c3cccc(Cl)c3)c2)s1` [Example 69, 3-(3-Chlorophenyl)-2-(difluoromethoxy)-5-[(dimethyl-1,3-thiazol-5-yl)methyl]pyridine], the EC50 was < 100 nM. `Nc1ncc(Cc2cnc(OC(F)F)c(-c3cccc(OC4COC4)c3)c2)cn1` [Example 43, 5-{[6-(Difluoromethoxy)-5-[3-(oxetan-3-yloxy)phenyl]pyridin-3-yl]methyl}pyrimidin-2-amine] registered an EC50 of 100 to 1000 nM. The value for `COc1ncc(C(N)c2ccc(F)cc2)cc1-c1cccc(Cl)c1` (centres unmarked) [Example 18, [5-(3-Chlorophenyl)-6-methoxypyridin-3-yl](4-fluorophenyl)methanamine] was 1000 to 10000 nM; that for `COc1ccc(Cc2cnc(OC)c(-c3cccc(Cl)c3)c2)cn1` [Example 32, 3-(3-Chlorophenyl)-2-methoxy-5-[(6-methoxypyridin-3-yl)methyl]pyridine] was < 100 nM.

The molecule `COc1ncc(Cc2ccc(N(C)C)nc2)cc1-c1cccc(Cl)c1` [Example 34, 5-{[5-(3-Chlorophenyl)-6-methoxypyridin-3-yl]methyl}-N,N-dimethylpyridin-2-amine] returned an EC50 of 100 to 1000 nM. Under `CCOc1ncc(Cc2cnc(N)nc2)nc1-c1cccc(Cl)c1` [Example 105, 5-{[6-(3-Chlorophenyl)-5-ethoxypyrazin-2-yl]methyl}pyrimidin-2-amine] stands < 100 nM. `COc1ncc(Cn2cncn2)cc1-c1cccc(C)c1` [Example 5, 2-Methoxy-3-(3-methylphenyl)-5-(1H-1,2,4-triazol-1-ylmethyl)pyridine] came in with a concentration for a half-maximal effect (EC50) of 100 to 1000 nM. Under `Nc1ncc(Cc2cnc(OC(F)F)c(-c3cccc(Cl)c3)c2)cn1` [Example 89, 5-{[5-(3-Chlorophenyl)-6-(difluoromethoxy)pyridin-3-yl]methyl}pyrimidin-2-amine] stands < 100 nM; under `CCOC(=O)C1(c2ccc(Cc3cnc(OC(F)F)c(-c4cccc(Cl)c4)c3)cc2)CC1` [Example 101, Ethyl 1-(4-{[5-(3-chlorophenyl)-6-(difluoromethoxy)pyridin-3-yl]methyl}phenyl)cyclopropane-1-carboxylate], 1000 to 10000 nM; under `COCc1ncnn1Cc1cnc(OC(F)F)c(-c2cccc(Cl)c2)c1` [Example 158, 3-(3-Chlorophenyl)-2-(difluoromethoxy)-5-{[5-(methoxymethyl)-1H-1,2,4-triazol-1-yl]methyl}pyridine], 1000 to 10000 nM. The value for `COc1ncc(Cn2cc(C#N)cn2)cc1-c1cccc(Cl)c1` [Example 170, 1-{[5-(3-Chlorophenyl)-6-methoxypyridin-3-yl]methyl}-1H-pyrazole-4-carbonitrile] was 100 to 1000 nM; that for `COc1ncc(Cn2cc(CO)nn2)nc1-c1cccc(OC(F)F)c1` [Example 267, [1-({6-[3-(Difluoromethoxy)phenyl]-5-methoxypyrazin-2-yl}methyl)-1H-1,2,3-triazol-4-yl]methanol] was 100 to 1000 nM.

The molecule `COc1ncc(Cc2cnc(N(C)C)nc2)cc1-c1cccc(Cl)c1` [Example 83, 5-{[5-(3-Chlorophenyl)-6-methoxypyridin-3-yl]methyl}-N,N-dimethylpyrimidin-2-amine] displayed a concentration for a half-maximal effect (EC50) of 100 to 1000 nM.

For the molecule `COc1ncc(Cc2cnc(C(N)=O)nc2)cc1-c1cccc(Cl)c1` [Example 24, 5-{[5-(3-Chlorophenyl)-6-methoxypyridin-3-yl]methyl}pyrimidine-2-carboxamide], the EC50 lay within 100 to 1000 nM. The molecule `COc1ncc(Cn2ncnc2C(F)(F)F)cc1-c1cccc(OC(F)F)c1` [Example 160, 3-[3-(Difluoromethoxy)phenyl]-2-methoxy-5-{[5-(trifluoromethyl)-1H-1,2,4-triazol-1-yl]methyl}pyridine] came in with an EC50 of 100 to 1000 nM. Under `CCOc1ncc(Cn2cnc(C(F)(F)F)n2)nc1-c1cccc(OC(F)F)c1` [Example 187, 3-[3-(Difluoromethoxy)phenyl]-2-ethoxy-5-{[3-(trifluoromethyl)-1H-1,2,4-triazol-1-yl]methyl}pyrazine] stands 1000 to 10000 nM. The value for `FC(F)Oc1ncc(Cn2cnc(C3CC3)n2)cc1-c1cccc(Cl)c1` [Example 128, 3-(3-Chlorophenyl)-5-[(3-cyclopropyl-1H-1,2,4-triazol-1-yl)methyl]-2-(difluoromethoxy)pyridine] was 100 to 1000 nM; that for `NCc1ncn(Cc2cnc(OC(F)F)c(-c3cccc(Cl)c3)c2)n1` [Example 240, (1-{[5-(3-Chlorophenyl)-6-(difluoromethoxy)pyridin-3-yl]methyl}-1H-1,2,4-triazol-3-yl)methanamine] was 1000 to 10000 nM; that for `COc1ncc(Cc2ccccc2CO)cc1-c1cccc(Cl)c1` [Example 37, (2-{[5-(3-Chlorophenyl)-6-methoxypyridin-3-yl]methyl}phenyl)methanol] was 100 to 1000 nM. The value for `O=C(O)c1ccc(Cc2cnc(OC(F)F)c(-c3cccc(Cl)c3)c2)cn1` [Example 54, 5-{[5-(3-Chlorophenyl)-6-(difluoromethoxy)pyridin-3-yl]methyl}pyridine-2-carboxylic acid] was 1000 to 10000 nM; that for `CCOc1ncn(Cc2cnc(OC(F)F)c(-c3cccc(Cl)c3)c2)n1` [Example 216, 3-(3-Chlorophenyl)-2-(difluoromethoxy)-5-[(3-ethoxy-1H-1,2,4-triazol-1-yl)methyl]pyridine] was 100 to 1000 nM; that for `CCOc1ncc(Cn2ccc(C(N)=O)n2)cc1-c1cccc(Cl)c1` [Example 168, 1-{[5-(3-Chlorophenyl)-6-ethoxypyridin-3-yl]methyl}-1H-pyrazole-3-carboxamide] was < 100 nM. `COc1ncc(Cc2ccc(C#N)cc2)nc1-c1cccc(Cl)c1` [Example 86, 4-{[6-(3-Chlorophenyl)-5-methoxypyrazin-2-yl]methyl}benzonitrile] showed an EC50 of 100 to 1000 nM.
